Here are results for one molecule from paper PMC9704499 (European journal of medicinal chemistry, 2021).

This data set concerns Tau0N4R-TM-tGFP U2OS cells. Nature of the data set: Tau phosphorylation. As to conditions: 25–100 μM, 6 hrs.

As to `c1ccc(CNc2nc(Nc3cc(C4CC4)[nH]n3)c3sccc3n2)cc1` [Compound 4, N2-benzyl-N4-(5-cyclopropyl-1H-pyrazol-3-yl)thieno[3,2-d]pyrimidine-2,4-diamine], the “cytotoxicity in bundle formation assay” value is reported as “cytotoxicity effects started to appear”.
